This note sets out measurements from ChEMBL document CHEMBL3576851, “Bacterial Sliding Clamp Inhibitors that Mimic the Sequential Binding Mechanism of Endogenous Linear Motifs” (J Med Chem, 2015).

pIC50, pKd, pKi: −log10 of the molar value. The source made the active and inactive calls. The calls are words filed in the database; no cut-off is given here.

Experiment [1] has as its target T1, Beta sliding clamp (Escherichia coli (strain K12), UniProt P0A988). The experiment is described as follows: Inhibition of Escherichia coli DNA sliding clamp protein using N-fluorescein (FAM)-QLDLF-OH tracer by fluorescence polarization assay. Background: Polarisation of emitted light reports the rotation of a fluorescent probe.
The target in experiment [2] is T1, Beta sliding clamp. Nature of the experiment: Binding affinity to Escherichia coli DNA sliding clamp protein at 298K by isothermal titration calorimetry.
Experiment [3] deals with Beta sliding clamp (Escherichia coli (strain K12)) (UniProt P0A988). Nature of the experiment: Inhibition of Escherichia coli DNA sliding clamp protein assessed as reduction in DNA replication at 31 uM in presence of circular ssDNA, RNA primer template, SSB, Pol3-alpha subunit, reconstituted gamma3delta-delta' clamp loader complex by SYBR gold dye based agarose gel electrophoresis method.

The target is the same in experiment [4]. Nature of the experiment: Inhibition of Escherichia coli DNA sliding clamp protein assessed as reduction in DNA replication at >125 uM in presence of circular ssDNA, RNA primer template, SSB, Pol3-alpha subunit, reconstituted gamma3delta-delta' clamp loader complex by SYBR gold dye based agarose gel electrophoresis method.

The pIC50 is the IC50 on a negative log10 scale, so that one unit is a factor of ten. A higher pIC50 goes with a low IC50. Broadly, the pKi is the Ki on a negative log10 scale, so that one unit is a factor of ten. Higher therefore signals a small Ki. One may read the pKd as the Kd on a negative log10 scale, so that one unit is a factor of ten. A low value points to a high Kd.

T1 sequence (P0A988 whole entry): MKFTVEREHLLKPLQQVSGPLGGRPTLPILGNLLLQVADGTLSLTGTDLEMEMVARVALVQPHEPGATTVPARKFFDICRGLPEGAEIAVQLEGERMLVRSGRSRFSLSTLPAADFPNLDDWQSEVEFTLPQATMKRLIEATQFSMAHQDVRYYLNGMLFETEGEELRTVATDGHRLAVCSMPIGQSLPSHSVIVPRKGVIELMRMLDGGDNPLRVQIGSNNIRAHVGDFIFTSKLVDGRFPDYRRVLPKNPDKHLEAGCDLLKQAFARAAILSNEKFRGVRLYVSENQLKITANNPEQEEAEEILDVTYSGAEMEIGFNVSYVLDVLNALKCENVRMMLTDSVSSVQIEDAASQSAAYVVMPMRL
Sequence of Beta sliding clamp (Escherichia coli (strain K12)) (P0A988 whole entry): as above

For the compound `O=C(Cn1c2c(c3cc(Br)ccc31)CC[C@@H](C(=O)O)C2)NCC1CCNCC1`, at Beta sliding clamp [1], the pIC50 was 3.68 and the pKi was 3.94.

At Beta sliding clamp [1], `O=C(O)CNC(=O)Cn1c2c(c3cc(Br)ccc31)CC[C@@H](C(=O)O)C2` had a pIC50 of 4.70 and a pKi of 4.96. For the same compound, on Beta sliding clamp [2], the pKd is 4.85. Also, in experiment [3], the inhibition entry is “Active”.

On Beta sliding clamp [1], `O=C(O)[C@H]1CCc2c([nH]c3ccc(Cl)cc23)C1` had a pIC50 of 3.35 and a pKi of 3.61.

Take `NC(=O)Cn1c2c(c3cc(Cl)ccc31)CC[C@H](C(=O)O)C2`: on Beta sliding clamp [1], the pIC50 was 3.05 and the pKi was 3.31.

At Beta sliding clamp [1], `NC(=O)CNC(=O)Cn1c2c(c3cc(Br)ccc31)CC[C@@H](C(=O)O)C2` gave a pIC50 of 3.77 and a pKi of 4.02.

For `OCC1CCc2c([nH]c3ccc(Cl)cc23)C1` (racemic), the pIC50 against Beta sliding clamp [1] is less than 3.00.

`NC(=O)c1ccc(CNC(=O)Cn2c3c(c4cc(Br)ccc42)CC[C@@H](C(=O)O)C3)cc1`: at Beta sliding clamp [1], the pIC50 is 4.19 and the pKi was 4.44.

At Beta sliding clamp [1], `NC(=O)Cc1ccc(NC(=O)Cn2c3c(c4cc(Cl)ccc42)CC[C@@H](C(=O)O)C3)cc1` gave a negative-log IC50 (pIC50) of 3.44 and a pKi of 3.70.

On Beta sliding clamp [1], `CCNC(=O)Cn1c2c(c3cc(Cl)ccc31)CC[C@@H](C(=O)O)C2` showed a pIC50 of 3.46 and a pKi of 3.71.

`CC(C)(C)OC(=O)N1CCC(CNC(=O)Cn2c3c(c4cc(Br)ccc42)CC[C@@H](C(=O)O)C3)CC1`: on Beta sliding clamp [1], the pIC50 was 3.82 and the pKi was 4.08.

At Beta sliding clamp [1], `O=C(O)[C@@H]1CCc2c([nH]c3ccc(Cl)cc23)C1` had a pIC50 of 3.87 and a pKi of 4.13. The inhibition entry in experiment [4] was “Active”.

For `COC(=O)C1CCc2c([nH]c3ccc(Cl)cc23)C1` (racemic), the pIC50 at Beta sliding clamp [1] was less than 3.00.

At Beta sliding clamp [1], `O=C(O)[C@@H]1CCc2c([nH]c3ccc(F)cc23)C1` gave a pIC50 of 3.09 and a pKi of 3.34.

On Beta sliding clamp [1], `O=C(Cn1c2c(c3cc(Br)ccc31)CC[C@@H](C(=O)O)C2)N[C@H](Cc1ccccc1)C(=O)O` showed a pIC50 of 4.52 and a pKi of 4.77. The same compound gave a pKd on Beta sliding clamp [2] of 4.89. In addition, the inhibition entry in experiment [3] is “Active”.

On to `CC(C)C[C@H](NC(=O)Cn1c2c(c3cc(Br)ccc31)CC[C@@H](C(=O)O)C2)C(=O)O`, for which, at Beta sliding clamp [1], the pIC50 is 4.32 and the pKi is 4.57.

On Beta sliding clamp [1], `NC(=O)Cn1c2c(c3cc(Br)ccc31)CC[C@H](C(=O)O)C2` had a pIC50 of 3.55 and a pKi of 3.80.

As to `O=C(Cn1c2c(c3cc(Br)ccc31)CC[C@@H](C(=O)O)C2)N[C@@H](Cc1ccccc1)C(=O)O`, at Beta sliding clamp [1], the pIC50 was 4.57 and the pKi was 4.82. The same compound had a pKd on Beta sliding clamp [2] of 5.05. The inhibition result in experiment [3] is “Active”.

On Beta sliding clamp [1], `O=C(O)[C@@H]1CCc2c([nH]c3ccc(I)cc23)C1` gave a pIC50 of 3.76 and a pKi of 4.01.

On Beta sliding clamp [1], `NC(=O)Cn1c2c(c3cc(Br)ccc31)CC[C@@H](C(=O)O)C2` showed a pIC50 of 3.61 and a pKi of 3.86. Besides, the inhibition result in experiment [4] is “Active”.

On to `NC(=O)C1CCc2c([nH]c3ccc(Cl)cc23)C1` (racemic), for which, at Beta sliding clamp [1], the pIC50 was less than 3.00.

On Beta sliding clamp [1], `O=C(O)[C@H]1CCc2c([nH]c3ccc(Br)cc23)C1` had a pIC50 of 3.48 and a pKi of 3.74.

In the case of `CC(C)(C)OC(=O)NCCCC[C@@H](NC(=O)Cn1c2c(c3cc(Br)ccc31)CC[C@@H](C(=O)O)C2)C(=O)O`, at Beta sliding clamp [1], the pIC50 was 3.94 and the pKi was 4.19.

Turning to `NC(=O)CN1CCC(NC(=O)Cn2c3c(c4cc(Br)ccc42)CC[C@@H](C(=O)O)C3)CC1`, at Beta sliding clamp [1], the pIC50 was 3.51 and the pKi was 3.77.

`O=C(O)C1CCc2c([nH]c3ccc(Cl)cc23)C1` (racemic): on Beta sliding clamp [1], the pIC50 is 3.52 and the pKi was 3.78.

At Beta sliding clamp [1], `O=C(O)CNC(=O)Cn1c2c(c3cc(Cl)ccc31)CC[C@@H](C(=O)O)C2` showed a pIC50 of 4.07 and a pKi of 4.33. The pKd on Beta sliding clamp [2] was 4.62.

On Beta sliding clamp [1], `O=C(O)[C@@H]1CCc2c([nH]c3ccc(Br)cc23)C1` had a pIC50 of 3.80 and a pKi of 4.06. Also, in experiment [4], the inhibition entry was “Active”.

`NC(=O)Cn1c2c(c3cc(Cl)ccc31)CC[C@@H](C(=O)O)C2`: at Beta sliding clamp [1], the pIC50 was 3.43 and the pKi was 3.69. In addition, the inhibition result in experiment [4] is “Active”.
